# Test results: PubChem BioAssay AID1963849 (Molecular Pharmacology Branch, DTP, NCI, 2024)
# Tested on: 299254-011-R-J1-PDC complex spheroid viability
# Test: Anticancer human tumor 299254-011-R-J1-PDC patient-derived melanoma cell line growth inhibition [POLQ]
# Conditions: for IC50: curve of first compound; for viability, T/C: stronger effect = lower value
# Outline: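 PDC + HUVEC + MSC complex spheroids; POLQ inhibitors ± partner drugs; top conc. at/near clinical Cmax, else 10 microM (SN-38 1 microM), half-log dilutions; 37 degrees C, 5% CO2.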
# [1] = second compound 0.0316 µM, first compound 0.0316 µM
# [2] = second compound 0.0316 µM, first compound 0.1 µM
# [3] = second compound 0.0316 µM, first compound 0.316 µM
# [4] = second compound 0.0316 µM, first compound 1 µM
# [5] = second compound 0.0316 µM, first compound 3.16 µM
# [6] = second compound 0.0316 µM, first compound 10 µM
# [7] = second compound 0.1 µM, first compound 0.0316 µM
# [8] = second compound 0.1 µM, first compound 0.1 µM
# [9] = second compound 0.1 µM, first compound 0.316 µM
# [10] = second compound 0.1 µM, first compound 1 µM
# [11] = second compound 0.1 µM, first compound 3.16 µM
# [12] = second compound 0.1 µM, first compound 10 µM
# [13] = second compound 0.316 µM, first compound 0.0316 µM
# [14] = second compound 0.316 µM, first compound 0.1 µM
# [15] = second compound 0.316 µM, first compound 0.316 µM
# [16] = second compound 0.316 µM, first compound 1 µM
# [17] = second compound 0.316 µM, first compound 3.16 µM
# [18] = second compound 0.316 µM, first compound 10 µM
# [19] = second compound 1 µM, first compound 0.0316 µM
# [20] = second compound 1 µM, first compound 0.1 µM
# [21] = second compound 1 µM, first compound 0.316 µM
# [22] = second compound 1 µM, first compound 1 µM
# [23] = second compound 1 µM, first compound 3.16 µM
# [24] = second compound 1 µM, first compound 10 µM
# [25] = second compound 3.16 µM, first compound 0.0316 µM
# [26] = second compound 3.16 µM, first compound 0.1 µM
# [27] = second compound 3.16 µM, first compound 0.316 µM
# [28] = second compound 3.16 µM, first compound 1 µM
# [29] = second compound 3.16 µM, first compound 3.16 µM
# [30] = second compound 3.16 µM, first compound 10 µM
# [31] = second compound 10 µM, first compound 0.0316 µM
# [32] = second compound 10 µM, first compound 0.1 µM
# [33] = second compound 10 µM, first compound 0.316 µM
# [34] = second compound 10 µM, first compound 1 µM
# [35] = second compound 10 µM, first compound 3.16 µM
# [36] = second compound 10 µM, first compound 10 µM
# 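Note: spheroids exposed to drugs for one week before measurement.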
# 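Throughout, for viability, T/C: percent viability relative to DMSO vehicle control taken as 100%.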
compound,measurement,setting,value
CC1COCCN1c1cc(-c2ccnn2C)c2ccnc(-c3ccn[nH]3)c2n1 (stereo not drawn) + Nc1ccc(C#CCN(C(=O)Cc2ncc(C(F)(F)F)cc2C(F)(F)F)c2ccc(F)cc2)nn1,IC50,second compound 0.0316 µM,311 nM
same,IC50,second compound 0.1 µM,226 nM
same,IC50,second compound 0.316 µM,295 nM
same,IC50,second compound 1 µM,264 nM
same,IC50,second compound 3.16 µM,179 nM
same,IC50,second compound 10 µM,160 nM
same,"viability, T/C",[1],87.8%
same,"viability, T/C",[2],80.3%
same,"viability, T/C",[3],43.7%
same,"viability, T/C",[4],36.3%
same,"viability, T/C",[5],22.3%
same,"viability, T/C",[6],18.7%
same,"viability, T/C",[7],102%
same,"viability, T/C",[8],70.9%
same,"viability, T/C",[9],41.9%
same,"viability, T/C",[10],27.8%
same,"viability, T/C",[11],23.2%
same,"viability, T/C",[12],25.4%
same,"viability, T/C",[13],102%
same,"viability, T/C",[14],70.5%
same,"viability, T/C",[15],50.4%
same,"viability, T/C",[16],31.2%
same,"viability, T/C",[17],28.1%
same,"viability, T/C",[18],19.5%
same,"viability, T/C",[19],88.7%
same,"viability, T/C",[20],68.5%
same,"viability, T/C",[21],43.8%
same,"viability, T/C",[22],33.8%
same,"viability, T/C",[23],31.2%
same,"viability, T/C",[24],19.6%
same,"viability, T/C",[25],84.7%
same,"viability, T/C",[26],62.6%
same,"viability, T/C",[27],36.3%
same,"viability, T/C",[28],32.4%
same,"viability, T/C",[29],19.9%
same,"viability, T/C",[30],25.4%
same,"viability, T/C",[31],82.5%
same,"viability, T/C",[32],54.6%
same,"viability, T/C",[33],42.6%
same,"viability, T/C",[34],33.2%
same,"viability, T/C",[35],20.7%
same,"viability, T/C",[36],25.2%
C=CCn1c(=O)c2cnc(Nc3ccc(N4CCN(C)CC4)cc3)nc2n1-c1cccc(C(C)(C)O)n1 + Nc1ccc(C#CCN(C(=O)Cc2ncc(C(F)(F)F)cc2C(F)(F)F)c2ccc(F)cc2)nn1,IC50,second compound 0.0316 µM,> 1000 nM
same,IC50,second compound 0.1 µM,> 1000 nM
same,IC50,second compound 0.316 µM,> 1000 nM
same,IC50,second compound 1 µM,> 1000 nM
same,IC50,second compound 3.16 µM,> 1000 nM
same,IC50,second compound 10 µM,> 1000 nM
same,"viability, T/C","second compound 0.0316 µM, first compound 0.00316 µM",104%
same,"viability, T/C","second compound 0.0316 µM, first compound 0.01 µM",85%
same,"viability, T/C",[1],98.5%
same,"viability, T/C",[2],105%
same,"viability, T/C",[3],95.8%
same,"viability, T/C",[4],68.3%
same,"viability, T/C","second compound 0.1 µM, first compound 0.00316 µM",101%
same,"viability, T/C","second compound 0.1 µM, first compound 0.01 µM",93.1%
same,"viability, T/C",[7],94.9%
same,"viability, T/C",[8],102%
same,"viability, T/C",[9],104%
same,"viability, T/C",[10],69.9%
same,"viability, T/C","second compound 0.316 µM, first compound 0.00316 µM",104%
same,"viability, T/C","second compound 0.316 µM, first compound 0.01 µM",101%
same,"viability, T/C",[13],93.4%
same,"viability, T/C",[14],93.4%
same,"viability, T/C",[15],104%
same,"viability, T/C",[16],74.6%
same,"viability, T/C","second compound 1 µM, first compound 0.00316 µM",102%
same,"viability, T/C","second compound 1 µM, first compound 0.01 µM",120%
same,"viability, T/C",[19],107%
same,"viability, T/C",[20],97.2%
same,"viability, T/C",[21],94.4%
same,"viability, T/C",[22],58%
same,"viability, T/C","second compound 3.16 µM, first compound 0.00316 µM",95.5%
same,"viability, T/C","second compound 3.16 µM, first compound 0.01 µM",95.5%
same,"viability, T/C",[25],95.7%
same,"viability, T/C",[26],95.3%
same,"viability, T/C",[27],101%
same,"viability, T/C",[28],72.5%
same,"viability, T/C","second compound 10 µM, first compound 0.00316 µM",103%
same,"viability, T/C","second compound 10 µM, first compound 0.01 µM",92%
same,"viability, T/C",[31],88.6%
same,"viability, T/C",[32],87.5%
same,"viability, T/C",[33],77.3%
same,"viability, T/C",[34],58.9%
COc1cccc2c1C(=O)c1c(O)c3c(c(O)c1C2=O)CC(O)(C(=O)CO)CC3OC1CC(N)C(O)C(C)O1 (stereo not drawn) + COC1C(OC(N)=O)C(O)C(Oc2ccc3c(O)c(NC(=O)c4ccc(O)c(CC=C(C)C)c4)c(=O)oc3c2C)OC1(C)C,IC50,second compound 0.0316 µM,564 nM
same,IC50,second compound 0.1 µM,815 nM
same,IC50,second compound 0.316 µM,527 nM
same,IC50,second compound 1 µM,909 nM
same,IC50,second compound 3.16 µM,826 nM
same,IC50,second compound 10 µM,541 nM
same,"viability, T/C",[1],81.9%
same,"viability, T/C",[2],96.5%
same,"viability, T/C",[3],55.2%
same,"viability, T/C",[4],40.7%
same,"viability, T/C",[5],9.45%
same,"viability, T/C",[6],3.09%
same,"viability, T/C",[7],86.8%
same,"viability, T/C",[8],97.5%
same,"viability, T/C",[9],75.7%
same,"viability, T/C",[10],44.9%
same,"viability, T/C",[11],11.2%
same,"viability, T/C",[12],3%
same,"viability, T/C",[13],99.2%
same,"viability, T/C",[14],96%
same,"viability, T/C",[15],54.9%
same,"viability, T/C",[16],37.8%
same,"viability, T/C",[17],13.1%
same,"viability, T/C",[18],0.51%
same,"viability, T/C",[19],93%
same,"viability, T/C",[20],87.5%
same,"viability, T/C",[21],76.7%
same,"viability, T/C",[22],49.2%
same,"viability, T/C",[23],11.9%
same,"viability, T/C",[24],0.78%
same,"viability, T/C",[25],92.6%
same,"viability, T/C",[26],95.5%
same,"viability, T/C",[27],76.7%
same,"viability, T/C",[28],45.6%
same,"viability, T/C",[29],10.3%
same,"viability, T/C",[30],0.92%
same,"viability, T/C",[31],105%
same,"viability, T/C",[32],104%
same,"viability, T/C",[33],65.2%
same,"viability, T/C",[34],30%
same,"viability, T/C",[35],10.7%
same,"viability, T/C",[36],1.25%
COc1cc2cc(C(=O)CCC(=O)O)sc2cc1OC + COC1C(OC(N)=O)C(O)C(Oc2ccc3c(O)c(NC(=O)c4ccc(O)c(CC=C(C)C)c4)c(=O)oc3c2C)OC1(C)C,IC50,second compound 0.0316 µM,> 10000 nM
same,IC50,second compound 0.1 µM,> 10000 nM
same,IC50,second compound 0.316 µM,> 10000 nM
same,IC50,second compound 1 µM,> 10000 nM
same,IC50,second compound 3.16 µM,> 10000 nM
same,IC50,second compound 10 µM,> 10000 nM
same,"viability, T/C",[1],112%
same,"viability, T/C",[2],98.3%
same,"viability, T/C",[3],106%
same,"viability, T/C",[4],100%
same,"viability, T/C",[5],113%
same,"viability, T/C",[6],102%
same,"viability, T/C",[7],95.8%
same,"viability, T/C",[8],109%
same,"viability, T/C",[9],101%
same,"viability, T/C",[10],116%
same,"viability, T/C",[11],99.2%
same,"viability, T/C",[12],114%
same,"viability, T/C",[13],112%
same,"viability, T/C",[14],93.1%
same,"viability, T/C",[15],104%
same,"viability, T/C",[16],110%
same,"viability, T/C",[17],113%
same,"viability, T/C",[18],109%
same,"viability, T/C",[19],91.8%
same,"viability, T/C",[20],104%
same,"viability, T/C",[21],104%
same,"viability, T/C",[22],109%
same,"viability, T/C",[23],104%
same,"viability, T/C",[24],125%
same,"viability, T/C",[25],108%
same,"viability, T/C",[26],96%
same,"viability, T/C",[27],94%
same,"viability, T/C",[28],110%
same,"viability, T/C",[29],112%
same,"viability, T/C",[30],108%
same,"viability, T/C",[31],103%
same,"viability, T/C",[32],104%
same,"viability, T/C",[33],95%
same,"viability, T/C",[34],107%
same,"viability, T/C",[35],110%
same,"viability, T/C",[36],97.5%
